Test results reported in patent US20230062119A1, “USE OF BIOMARKERS IN IDENTIFYING PATIENTS THAT WILL BE RESPONSIVE TO TREATMENT WITH A PRMT5 INHIBITOR” (Merck Sharp & Dohme LLC, priority 2019, published 2023).
Read-outs that look alike come from different tables or passages of the source.

Biological target: T1, Full-length (FL)-PRMT5-MEP50 enzyme complex (Homo sapiens, UniProt O14744)
T1 construct: Full-length (FL)-PRMT5-MEP50 enzyme complex (recombinant proteins from baculovirus-transfected Sf21 cells: FL-PRMT5; MW=73837 kDa and FL-MEP50; MW=38614); made in house; host or cells: baculovirus-transfected Sf21 insect cells
T1 sequence (O14744 whole entry): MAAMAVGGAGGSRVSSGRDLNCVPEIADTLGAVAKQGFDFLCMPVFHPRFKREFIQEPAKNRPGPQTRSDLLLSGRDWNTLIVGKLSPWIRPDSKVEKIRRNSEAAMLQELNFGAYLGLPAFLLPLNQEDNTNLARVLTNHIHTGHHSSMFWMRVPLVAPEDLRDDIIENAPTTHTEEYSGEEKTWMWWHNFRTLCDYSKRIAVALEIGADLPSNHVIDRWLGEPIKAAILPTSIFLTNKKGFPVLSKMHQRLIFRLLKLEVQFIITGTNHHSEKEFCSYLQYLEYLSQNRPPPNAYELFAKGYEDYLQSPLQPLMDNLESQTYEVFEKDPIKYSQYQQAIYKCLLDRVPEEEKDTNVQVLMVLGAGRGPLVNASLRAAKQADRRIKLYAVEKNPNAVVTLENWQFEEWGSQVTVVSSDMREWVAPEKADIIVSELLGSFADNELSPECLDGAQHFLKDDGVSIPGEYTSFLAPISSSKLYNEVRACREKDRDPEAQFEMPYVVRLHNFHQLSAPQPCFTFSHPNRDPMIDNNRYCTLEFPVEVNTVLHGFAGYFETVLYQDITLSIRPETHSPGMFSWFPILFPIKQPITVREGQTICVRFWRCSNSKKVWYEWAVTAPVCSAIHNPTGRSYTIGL
T1 sequence (Q9BQA1 whole entry partner): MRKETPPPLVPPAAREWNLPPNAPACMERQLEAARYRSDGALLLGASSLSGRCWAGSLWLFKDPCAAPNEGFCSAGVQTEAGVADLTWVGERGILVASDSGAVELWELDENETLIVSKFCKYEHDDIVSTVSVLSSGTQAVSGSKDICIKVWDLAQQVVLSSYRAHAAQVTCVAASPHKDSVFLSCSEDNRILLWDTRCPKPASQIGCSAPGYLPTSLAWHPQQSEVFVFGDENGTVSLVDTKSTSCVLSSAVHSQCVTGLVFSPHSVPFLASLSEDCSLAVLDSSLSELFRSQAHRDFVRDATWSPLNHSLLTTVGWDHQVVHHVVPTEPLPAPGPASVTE
Assay: PRMT5-MEP50 Enzyme Methylation Assay
Assay type: biochemical
Conditions: 1.0 nM PRMT5-MEP50, 75 nM biotinylated peptide, 15 μM SAM
Outline: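 Compound was pre-incubated 60 min at 37°C with 1.0 nM enzyme and 15 μM SAM (final) in 50 mM Bicine pH 8.0, then 75 nM biotinylated H4R3(Me1) peptide was added and reacted 150 min; twenty-point 1:2 titration from 100000 nM, 1% DMSO. Formic acid quench; SAMDI mass spectrometry measured Me1-to-Me2 conversion, EC50 by 4- or 7-parameter regression.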

[1] = one EC50: 4 parameters single site sigmoidal model, EC50 1: first value of 7 parameters biphasic model, read-out: Enzyme Methylation Assay (EC50 or EC50 1)
[2] = second EC50 of 7 parameters biphasic model, read-out: Enzyme Methylation Assay (EC50 2)

## Cc1nc(C)c2ccn([C@@H]3O[C@@H]4[C@H](Cc5ccc6cc(Br)c(N)nc6c5)CC[C@]4(O)[C@H]3O)c2n1 [Example 81, (2R,3R,3aS,6S,6aR)-6-((2-amino-3-bromoquinolin-7-yl)methyl)-2-(2,4-dimethyl-7H-pyrrolo[2,3-d]pyrimidin-7-yl)hexahydro-3aH-cyclopenta[b]furan-3,3a-diol]
[1]
  EC50: 0.7 nM

## Cc1ncnc2c1ccn2[C@@H]1O[C@@H]2[C@@H](Oc3ccc4cc5c(nc4c3)NCC5)CC[C@]2(O)[C@H]1O [Example 89, (2R,3R,3aS,6S,6aR)-6-((2,3-dihydro-1H-pyrrolo[2,3-b]quinolin-7-yl)oxy)-2-(4-methyl-7H-pyrrolo[2,3-d]pyrimidin-7-yl)hexahydro-3aH-cyclopenta[b]furan-3,3a-diol]
[1]
  EC50: 1.3 nM

## Nc1nc2cc(O[C@H]3CC[C@@]4(O)[C@@H]3O[C@@H](n3ccc5cncnc53)[C@@H]4O)ccc2cc1Br [Example 85, (2R,3R,3aS,6S,6aR)-6-((2-amino-3-bromoquinolin-7-yl)oxy)-2-(7H-pyrrolo[2,3-d]pyrimidin-7-yl)hexahydro-3aH-cyclopenta[b]furan-3,3a-diol]
[1]
  EC50: 1.2 nM
[2]
  EC50: 246 nM

## C[C@]1(COc2ccc3cc(Br)c(N)nc3c2)C[C@@H](n2ccc3c(N)ncnc32)[C@H](O)[C@@H]1O [Example 100, (1S,2R,3R,5R)-3-(((2-amino-3-bromoquinolin-7-yl)oxy)methyl)-5-(4-amino-7H-pyrrolo[2,3-d]pyrimidin-7-yl)-3-methylcyclopentane-1,2-diol]
[1]
  EC50: 0.6 nM
[2]
  EC50: 32 nM

## C[C@]1(O)[C@@H](O)[C@H](n2ccc3c(N)ncnc32)C[C@]1(O)CCc1ccc2cc(Br)c(N)nc2c1 [Example 118, (1R,2S,3S,4R)-1-(2-(2-amino-3-bromoquinolin-7-yl)ethyl)-4-(4-amino-7H-pyrrolo[2,3-d]pyrimidin-7-yl)-2-methylcyclopentane-1,2,3-triol]
[1]
  EC50: 3.2 nM
[2]
  EC50: 1590 nM

## Nc1nc2cc(O[C@H]3CC[C@@]4(O)[C@@H]3C[C@@H](n3ccc5c(N)ncnc53)[C@@H]4O)ccc2cc1Br [Example 119, (1S,2R,3aR,4S,6aR)-4-((2-amino-3-bromoquinolin-7-yl)oxy)-2-(4-amino-7H-pyrrolo[2,3-d]pyrimidin-7-yl)hexahydropentalene-1,6a(1H)-diol 2,2,2-trifluoroacetate]
[1]
  EC50: 1 nM
[2]
  EC50: 116 nM

## Cc1cn([C@@H]2O[C@@H]3[C@@H](Oc4ccc5cc(Br)c(N)nc5c4)CC[C@]3(O)[C@H]2O)c2ncnc(N)c12 [Example 60, (2R,3R,3aS,6S,6aR)-6-((2-amino-3-bromoquinolin-7-yl)oxy)-2-(4-amino-5-methyl-7H-pyrrolo[2,3-d]pyrimidin-7-yl)hexahydro-3aH-cyclopenta[b]furan-3,3a-diol]
[1]
  EC50: 0.4 nM

## Cc1ncnc2c1ccn2[C@@H]1O[C@@H]2[C@H](Cc3ccc4cc(Br)c(N)nc4c3)OC[C@]2(O)[C@H]1O [Example 133, (2R,3R,3aS,6S,6aR)-6-((2-amino-3-bromoquinolin-7-yl)methyl)-2-(4-methyl-7H-pyrrolo[2,3-d]pyrimidin-7-yl)tetrahydrofuro[3,4-b]furan-3,3a(4H)-diol]
[1]
  EC50: 0.8 nM

## Nc1nc2cc(C[C@@H]3CC[C@@]4(O)[C@@H]3O[C@@H](n3ccc5c(N)ncnc53)[C@@H]4O)ccc2cc1Br [Example 9, (2R,3R,3aS,6S,6aR)-6-((2-amino-3-bromoquinolin-7-yl)methyl)-2-(4-amino-7H-pyrrolo[2,3-d]pyrimidin-7-yl)hexahydro-2H-cyclopenta[b]furan-3,3a-diol]
[1]
  EC50: 0.3 nM

## C[C@@]1(O)[C@@H](COc2ccc3ccc(N)nc3c2)C[C@@H](n2ccc3cncnc32)[C@@H]1O [Example 105, (1R,2S,3R,5R)-5-(((2-aminoquinolin-7-yl)oxy)methyl)-1-methyl-3-(7H-pyrrolo[2,3-d]pyrimidin-7-yl)cyclopentane-1,2-diol]
[1]
  EC50: 0.3 nM
[2]
  EC50: 21.9 nM

## Nc1nc2cc(C[C@@H]3CC[C@@]4(O)[C@@H]3O[C@@H](n3ccc5c(N)ncnc53)[C@@H]4O)cc(F)c2cc1F [Example 29, (2R,3R,3aS,6S,6aR)-6-[(2-amino-3,5-difluoroquinolin-7-yl)methyl]-2-(4-amino-7H-pyrrolo[2,3-d]pyrimidin-7-yl)hexahydro-3aH-cyclopenta[b]furan-3,3a-diol]
[1]
  EC50: 0.3 nM

## Nc1nc2c(F)c(C[C@@H]3CC[C@@]4(O)[C@@H]3O[C@@H](n3ccc5c(N)ncnc53)[C@@H]4O)ccc2cc1Cl [Example 26, (2R,3R,3aS,6S,6aR)-6-((2-amino-3-chloro-8-fluoroquinolin-7-yl)methyl)-2-(4-amino-7H-pyrrolo[2,3-d]pyrimidin-7-yl)hexahydro-3aH-cyclopenta[b]furan-3,3a-diol]
[1]
  EC50: 1.1 nM

## Cc1nc(C)c2ccn([C@@H]3O[C@@H]4[C@@H](Oc5ccc6cc(Br)c(N)nc6c5)CC[C@]4(O)[C@H]3O)c2n1 [Example 80, (2R,3R,3aS,6S,6aR)-6-((2-amino-3-bromoquinolin-7-yl)oxy)-2-(2,4-dimethyl-7H-pyrrolo[2,3-d]pyrimidin-7-yl)hexahydro-3aH-cyclopenta[b]furan-3,3a-diol 2,2,2-trifluoroacetate]
[1]
  EC50: 2.9 nM

## C[C@@]1(O)[C@@H](CCc2ccc3cc(Br)c(N)nc3c2)O[C@@H](n2ccc3c(N)ncnc32)[C@@H]1O [Example 14, (2R,3S,4R,5R)-2-(2-(2-amino-3-bromoquinolin-7-yl)ethyl)-5-(4-amino-7H-pyrrolo[2,3-d]pyrimidin-7-yl)-3-methyltetrahydrofuran-3,4-diol]
[1]
  EC50: 1.3 nM
[2]
  EC50: 182 nM

## Nc1nc2cc(O[C@H]3CC[C@@]4(O)[C@@H]3O[C@@H](n3ccc5c(N)ncnc53)[C@@H]4O)ccc2cc1Cl [Example 72, (2R,3R,3aS,6S,6aR)-6-((2-amino-3-chloroquinolin-7-yl)oxy)-2-(4-amino-7H-pyrrolo[2,3-d]pyrimidin-7-yl)hexahydro-3aH-cyclopenta[b]furan-3,3a-diol]
[1]
  EC50: 0.9 nM

## COc1ncnc2c1ccn2[C@@H]1O[C@](C)(COc2ccc3cc(Br)c(N)nc3c2)[C@@H](O)[C@H]1O [Example 12, (2R,3S,4R,5R)-2-(((2-amino-3-bromoquinolin-7-yl)oxy)methyl)-5-(4-methoxy-7H-pyrrolo[2,3-d]pyrimidin-7-yl)-2-methyltetrahydrofuran-3,4-diol]
[1]
  EC50: 33 nM
[2]
  EC50: 20900 nM

## Nc1nc2cc(O[C@H]3CC[C@@]4(O)[C@@H]3O[C@@H](n3cc(C5CC5)c5c(N)ncnc53)[C@@H]4O)ccc2cc1Br [Example 52, (2R,3R,3aS,6S,6aR)-6-[(2-amino-3-bromoquinolin-7-yl)oxy]-2-(4-amino-5-cyclopropyl-7H-pyrrolo[2,3-d]pyrimidin-7-yl)hexahydro-3aH-cyclopenta[b]furan-3,3a-diol]
[1]
  EC50: 0.5 nM

## Cc1ncnc2c1ccn2[C@@H]1O[C@@H]2[C@@H](Oc3ccc4ccc(N)nc4c3)CC[C@]2(O)[C@H]1O [Example 113, (2R,3R,3aS,6S,6aR)-6-((2-aminoquinolin-7-yl)oxy)-2-(4-methyl-7H-pyrrolo[2,3-d]pyrimidin-7-Yl)hexahydro-2H-cyclopenta[b]furan-3,3a-diol]
[1]
  EC50: 1.1 nM

## C[C@]1(CCc2ccc3cc(Br)c(N)nc3c2)O[C@@H](n2ccc3c(N)ncnc32)[C@H](O)[C@]1(C)O [Example 4, (2R,3S,4R,5R)-2-(2-(2-amino-3-bromoquinolin-7-yl)ethyl)-5-(4-amino-7H-pyrrolo[2,3-d]pyrimidin-7-yl)-2,3-dimethyltetrahydrofuran-3,4-diol]
[1]
  EC50: 2.4 nM
[2]
  EC50: 288 nM
